From patent publication US20230219904A1 (SYNGENTA CROP PROTECTION AG, priority 2020, published 2023)

Columns and labels:
Assay type in all cases: in vivo
Settings in all cases: evaluated after 13 days
[1] = system: Abutilon theophrasti (ABUTH); assay: Pre-emergence herbicidal glasshouse test (Table B1)
How it was run: (§1)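 Pre: spray 1 d after sowing; post: spray after 8 d growth. Rate 500 g/h (default); vehicle acetone/water 50:50, 0.5% Tween 20. Glasshouse 24/16° C, 14 h light, 65% humidity. Readout % damage at 13 d, 5-point scale.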

[2] = system: Amaranthus retoflexus (AMARE); assay: as above
How it was run: as §1

[3] = system: Echinochloa crus-galh (ECHCG); assay: as above
How it was run: as §1

[4] = system: Ipomoea hederacea (IPOHE); assay: as above
How it was run: as §1

[5] = system: Setaria faberi (SETFA); assay: as above
How it was run: as §1

[6] = system: Abutilon theophrasti (ABUTH); assay: Post-emergence herbicidal glasshouse test (Table B1)
How it was run: as §1

[7] = system: Amaranthus retoflexus (AMARE); assay: as above
How it was run: as §1

[8] = system: Echinochloa crus-galh (ECHCG); assay: as above
How it was run: as §1

[9] = system: Ipomoea hederacea (IPOHE); assay: as above
How it was run: as §1

[10] = system: Setaria faberi (SETFA); assay: as above
How it was run: as §1

Compound	PRE Application ABUTH, percentage damage on five-point scale ([1]; applied at 500 g/h)	PRE Application AMARE, percentage damage on five-point scale ([2]; applied at 500 g/h)	PRE Application ECHCG, percentage damage on five-point scale ([3]; applied at 500 g/h)	PRE Application IPOHE, percentage damage on five-point scale ([4]; applied)	PRE Application SETFA, percentage damage on five-point scale ([5]; applied at 500 g/h)	POST Application ABUTH, percentage damage on five-point scale ([6]; applied at 500 g/h)	POST Application AMARE, percentage damage on five-point scale ([7]; applied at 500 g/h)	POST Application ECHCG, percentage damage on five-point scale ([8]; applied at 500 g/h)	POST Application IPOHE, percentage damage on five-point scale ([9]; applied at 500 g/h)	POST Application SETFA, percentage damage on five-point scale ([10]; applied at 500 g/h)	PRE Application ABUTH, percentage damage on five-point scale ([1]; applied at 125 g/ha)	PRE Application AMARE, percentage damage on five-point scale ([2]; applied at 125 g/ha)	PRE Application ECHCG, percentage damage on five-point scale ([3]; applied at 125 g/ha)	PRE Application IPOHE, percentage damage on five-point scale ([4]; applied at 125 g/ha)	PRE Application SETFA, percentage damage on five-point scale ([5]; applied at 125 g/ha)	POST Application ABUTH, percentage damage on five-point scale ([6]; applied at 125 g/ha)	POST Application AMARE, percentage damage on five-point scale ([7]; applied at 125 g/ha)	POST Application ECHCG, percentage damage on five-point scale ([8]; applied at 125 g/ha)	POST Application IPOHE, percentage damage on five-point scale ([9]; applied at 125 g/ha)	POST Application SETFA, percentage damage on five-point scale ([10]; applied at 125 g/ha)
Cn1nnnc1NC(=O)c1ccc(OC(F)(F)F)c(NC(=O)C2CCC2)c1Cl [Compound 1.112]	4 (4=60-79%)	5 (5=80-100%)	5 (5=80-100%)	1 (1=0-19%)	1 (1=0-19%)	5 (5=80-100%)	5 (5=80-100%)	5 (5=80-100%)	5 (5=80-100%)	5 (5=80-100%)										
CCn1nnnc1NC(=O)c1ccc(OC(F)(F)F)c(NC(=O)CCOC)c1Cl [Compound 1.113]	5 (5=80-100%)	5 (5=80-100%)	5 (5=80-100%)	1 (1=0-19%)	2 (2=20-39%)	5 (5=80-100%)	5 (5=80-100%)	5 (5=80-100%)	5 (5=80-100%)	5 (5=80-100%)										
CCCC(=O)Nc1c(OC(F)(F)F)ccc(C(=O)Nc2nnnn2CC)c1Cl [Compound 1.114]	5 (5=80-100%)	5 (5=80-100%)	5 (5=80-100%)	3 (3=40-59%)	2 (2=20-39%)	5 (5=80-100%)	5 (5=80-100%)	5 (5=80-100%)	5 (5=80-100%)	5 (5=80-100%)										
Cc1nnc(NC(=O)c2ccc(OC(F)(F)F)c(NC(=O)C3CC3)c2Cl)o1 [Compound 1.115]											4 (4=60-79%)	4 (4=60-79%)	5 (5=80-100%)	2 (2=20-39%)	4 (4=60-79%)	4 (4=60-79%)	3 (3=40-59%)	4 (4=60-79%)	4 (4=60-79%)	4 (4=60-79%)
CCn1nnnc1NC(=O)c1ccc(OC(F)(F)F)c(NC(=O)COC)c1Cl [Compound 1.116]	5 (5=80-100%)	5 (5=80-100%)	3 (3=40-59%)	1 (1=0-19%)	1 (1=0-19%)	5 (5=80-100%)	5 (5=80-100%)	5 (5=80-100%)	5 (5=80-100%)	5 (5=80-100%)										
CCn1nnnc1NC(=O)c1ccc(OC(F)(F)F)c(NC(=O)C2CC2)c1Cl [Compound 1.117]	5 (5=80-100%)	5 (5=80-100%)	5 (5=80-100%)	4 (4=60-79%)	4 (4=60-79%)	5 (5=80-100%)	5 (5=80-100%)	5 (5=80-100%)	5 (5=80-100%)	5 (5=80-100%)										
CCn1nnnc1NC(=O)c1ccc(OC(F)(F)F)c(NC(=O)C(C)C)c1Cl [Compound 1.118]											4 (4=60-79%)	4 (4=60-79%)	5 (5=80-100%)	2 (2=20-39%)	4 (4=60-79%)	4 (4=60-79%)	4 (4=60-79%)	4 (4=60-79%)	4 (4=60-79%)	4 (4=60-79%)
CCC(=O)Nc1c(OC(F)(F)F)ccc(C(=O)Nc2nnnn2CC)c1Cl [Compound 1.119]	5 (5=80-100%)	5 (5=80-100%)	5 (5=80-100%)	4 (4=60-79%)	2 (2=20-39%)	5 (5=80-100%)	5 (5=80-100%)	5 (5=80-100%)	5 (5=80-100%)	5 (5=80-100%)										
COCCC(=O)Nc1c(OC(F)(F)F)ccc(C(=O)Nc2nnnn2C)c1Cl [Compound 1.120]	4 (4=60-79%)	5 (5=80-100%)	5 (5=80-100%)	1 (1=0-19%)	1 (1=0-19%)	5 (5=80-100%)	5 (5=80-100%)	5 (5=80-100%)	5 (5=80-100%)	5 (5=80-100%)										
CCCC(=O)Nc1c(OC(F)(F)F)ccc(C(=O)Nc2nnnn2C)c1Cl [Compound 1.121]	4 (4=60-79%)	5 (5=80-100%)	5 (5=80-100%)	2 (2=20-39%)	1 (1=0-19%)	5 (5=80-100%)	5 (5=80-100%)	5 (5=80-100%)	5 (5=80-100%)	5 (5=80-100%)										
